The values that follow come from PubChem BioAssay (NCI).

SMILES strings stand for the structures.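 Exposure lasted 48 hours, with cells grown in 96-well plates and compounds tested at five concentrations. GI50 = concentration required for 50% inhibition of growth. TGI denotes the concentration required for complete inhibition of growth.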

Test systems include M14 melanoma; SK-OV-3 ovarian; UACC-62 melanoma; NCI-H460 lung; CCRF-CEM leukemia; 786-0 renal; HL-60(TB) leukemia; ACHN renal; SF-539 CNS; SNB-75 CNS.
Experiment in all cases: DTP human tumour cell line panel, 48 h

As for `CCCCCCCCCCCCN=C(N)c1ccc(N2CCN(c3ccc(C(N)=NCCCCCCCCCCCC)cc3)CC2)cc1`, the GI50 (commonly the concentration that inhibits growth by half) in the test on M14 melanoma was 7.82 µM; with SK-OV-3 ovarian, 19.5 µM; in the test with UACC-62 melanoma, 10.5 µM; with NCI-H460 lung it was 13.8 µM; in the test with CCRF-CEM leukemia, 1.56 µM; with 786-0 renal, 6.23 µM. The GI50 was 2.15 µM in the test on HL-60(TB) leukemia and 20.7 µM in the test on ACHN renal. The TGI (in general, the concentration at which net growth stops) was 16.4 µM with M14 melanoma; 34.1 µM with SK-OV-3 ovarian; 21.5 µM in the test with UACC-62 melanoma; above 50 µM in the test with NCI-H460 lung; 10.9 µM in the test with CCRF-CEM leukemia; 15.6 µM with 786-0 renal. The TGI in the test with HL-60(TB) leukemia and in the test with ACHN renal was above 50 µM each time.
Take `CCOC(=O)c1c(C)nc2c(c1N)/C(=C/c1ccccn1)C(=O)N2Cc1ccccc1`: the GI50 in the test on M14 melanoma is 1.03 µM; in the test on SK-OV-3 ovarian, 3.08 µM; in the test on UACC-62 melanoma, 0.94 µM; with NCI-H460 lung it was 1.17 µM; with SF-539 CNS, 0.882 µM; with CCRF-CEM leukemia it was 1.56 µM. In addition, the GI50 in the test on 786-0 renal is 0.867 µM; in the test with HL-60(TB) leukemia, 1.61 µM; in the test with ACHN renal, 0.906 µM. Also, the TGI with M14 melanoma was 2.39 µM; with SK-OV-3 ovarian it was above 50 µM; with UACC-62 melanoma, 1.96 µM; in the test with NCI-H460 lung, 2.8 µM; with SF-539 CNS it was 1.77 µM; with CCRF-CEM leukemia it was above 50 µM. In addition, the total growth inhibition concentration (TGI) is 1.68 µM with 786-0 renal, above 50 µM in the test with HL-60(TB) leukemia and 1.76 µM in the test on ACHN renal.
For the molecule `[N-]=[N+]=NCCCn1c2c(c3ccc([N+](=O)[O-])cc3c1=O)C(=O)c1cc(-c3ccccc3)ccc1-2`, the GI50 with SNB-75 CNS was 43.3 µM; in the test with M14 melanoma, above 100 µM; in the test on SK-OV-3 ovarian it was above 100 µM; with UACC-62 melanoma, above 100 µM; in the test with NCI-H460 lung, above 100 µM; in the test with SF-539 CNS it was above 100 µM. Further, the GI50 with CCRF-CEM leukemia, in the test with 786-0 renal and with ACHN renal was above 100 µM each time. Besides, the total growth inhibition concentration (TGI) with SNB-75 CNS, with M14 melanoma, in the test on SK-OV-3 ovarian, in the test with UACC-62 melanoma, in the test on NCI-H460 lung and in the test with SF-539 CNS was above 100 µM in each case. For the same molecule, the TGI with CCRF-CEM leukemia, with 786-0 renal and with ACHN renal was above 100 µM throughout.
On to `CCN1C(=O)N(CC)C2C1NN=c1s/c(=C3\C(=O)N(C4CCCC4)c4ccccc43)c(=O)n12` (stereo not given), for which the GI50 in the test with M14 melanoma is 0.913 µM; with SK-OV-3 ovarian it was 2.45 µM; in the test on UACC-62 melanoma, 0.465 µM; with NCI-H460 lung, 0.906 µM; with SF-539 CNS, 0.484 µM; with CCRF-CEM leukemia it was 2.02 µM. The GI50 in the test on 786-0 renal is 1.71 µM; in the test on HL-60(TB) leukemia, 1.76 µM; with ACHN renal, 1.27 µM. The total growth inhibition concentration (TGI) in the test with M14 melanoma is 6.73 µM; with SK-OV-3 ovarian it was 27.8 µM; with UACC-62 melanoma, 36 µM; with NCI-H460 lung, above 100 µM; with SF-539 CNS, 2.4 µM; in the test on CCRF-CEM leukemia it was 57.5 µM. Also, the TGI with 786-0 renal is 4.86 µM; in the test on HL-60(TB) leukemia, 4.94 µM; in the test with ACHN renal it was above 100 µM.
Take `Cc1ccc(N=C2N=C(N3CC(C)OC(C)C3)c3ccccc32)cc1` (stereo not given): the TGI in the test on SNB-75 CNS is 88.5 µM; with M14 melanoma, 56.5 µM; in the test with UACC-62 melanoma, above 100 µM; in the test on NCI-H460 lung it was above 100 µM; in the test on SF-539 CNS it was 38.1 µM; in the test on CCRF-CEM leukemia it was 66.8 µM. For the same molecule, the TGI in the test with 786-0 renal and in the test on ACHN renal was above 100 µM throughout.
For the molecule `O=C(N/C(=C\c1ccccc1O)c1nc2ccccc2[nH]1)c1ccccc1`, the TGI in the test on SNB-75 CNS is 36.1 µM; with M14 melanoma, above 100 µM; in the test with SK-OV-3 ovarian it was above 100 µM; with UACC-62 melanoma it was above 100 µM; with NCI-H460 lung, above 100 µM; in the test with SF-539 CNS, above 100 µM. Further, the TGI with CCRF-CEM leukemia, in the test on 786-0 renal and in the test on ACHN renal was above 100 µM in each case.
Turning to `CC(=O)NNc1nc(C)c(C(=O)NNC(=O)C(=O)Nc2c([N+](=O)[O-])ccc(C)c2C)s1`, the TGI with M14 melanoma, with UACC-62 melanoma, in the test on NCI-H460 lung, with SF-539 CNS, in the test with CCRF-CEM leukemia and in the test on 786-0 renal was above 100 µM each time. In addition, the total growth inhibition concentration (TGI) in the test on HL-60(TB) leukemia and in the test on ACHN renal was above 100 µM in each case.
Regarding `CCCCCCCCCCCCCCCC(=O)OCCOCCOCCOCCOCCOC(=O)CCCCCCCCCCCCCCC`, the TGI with M14 melanoma, in the test with SK-OV-3 ovarian, with UACC-62 melanoma, with NCI-H460 lung, in the test on CCRF-CEM leukemia and in the test with 786-0 renal was above 100 µM in each case. The TGI with HL-60(TB) leukemia and in the test with ACHN renal was above 100 µM each time.
Take `CC1=C(C(=O)Nc2ccc(F)c(Cl)c2)C(c2cccc(Oc3ccccc3)c2)NC(=S)N1` (stereo not given): the GI50 with M14 melanoma is 12 µM; with SK-OV-3 ovarian, 15.9 µM; in the test on UACC-62 melanoma it was 10 µM; in the test on NCI-H460 lung, 13.5 µM; with SF-539 CNS, 18.7 µM; in the test with CCRF-CEM leukemia, 17.7 µM. For the same molecule, the GI50 in the test with 786-0 renal is 10.8 µM; with HL-60(TB) leukemia it was 17.4 µM; with ACHN renal, 12.3 µM. For the same molecule, the total growth inhibition concentration (TGI) in the test on M14 melanoma amounted to 27.3 µM; with SK-OV-3 ovarian it was 43.3 µM; in the test with UACC-62 melanoma, 20.2 µM; with NCI-H460 lung, 33.6 µM; with SF-539 CNS, 44 µM; with CCRF-CEM leukemia it was 47.6 µM. The TGI with 786-0 renal is 21.5 µM; in the test on HL-60(TB) leukemia it was above 50 µM; with ACHN renal, 36.1 µM.
For the molecule `Oc1ccc2ccccc2c1C=NCc1c(O)ccc2ccccc12`, the TGI in the test with SNB-75 CNS, in the test with M14 melanoma, with SK-OV-3 ovarian, with UACC-62 melanoma, in the test on NCI-H460 lung and with SF-539 CNS was above 100 µM each time. Also, the TGI in the test on CCRF-CEM leukemia, in the test on 786-0 renal and in the test on ACHN renal was above 100 µM throughout.
